Measurements: article PMC6544370 (Nature, 2019)

Legend:
[1] = target: T1, STING (Stimulator of Interferon Genes) (Mus musculus, UniProt Q3TBT3); experiment: native PAGE gel shift; format: binding; conditions: pH 7.5, 60 mM KCl, 5 mM Mg(OAc)2; labelled compound; 4-100 μM protein
T1 sequence (Q3TBT3 139-378 limits assumed): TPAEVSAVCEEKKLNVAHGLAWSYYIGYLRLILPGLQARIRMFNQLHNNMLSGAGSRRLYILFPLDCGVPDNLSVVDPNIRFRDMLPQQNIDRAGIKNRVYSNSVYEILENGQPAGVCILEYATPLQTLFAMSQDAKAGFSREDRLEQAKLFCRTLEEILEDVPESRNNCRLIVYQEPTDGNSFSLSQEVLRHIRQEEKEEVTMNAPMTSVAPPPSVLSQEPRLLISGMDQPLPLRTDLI

Ec-CdnD02 (CD-NTase038) = Ec-CdnD02 (CD-NTase038) (Enterobacter hormaechei, UniProt P0DSP4); conditions: with GTP; pH 9.4, 5 mM Mg(OAc)2, 37 °C; product cAAG
Rm-CdnE = target: T2, Rm-CdnE (Rhodothermus marinus, UniProt G2SLH8); experiment: X-ray crystal structure; format: binding; conditions: with Upnpp and MgCl2; nonhydrolyzable substrate analogue
T2 sequence (G2SLH8 1-288): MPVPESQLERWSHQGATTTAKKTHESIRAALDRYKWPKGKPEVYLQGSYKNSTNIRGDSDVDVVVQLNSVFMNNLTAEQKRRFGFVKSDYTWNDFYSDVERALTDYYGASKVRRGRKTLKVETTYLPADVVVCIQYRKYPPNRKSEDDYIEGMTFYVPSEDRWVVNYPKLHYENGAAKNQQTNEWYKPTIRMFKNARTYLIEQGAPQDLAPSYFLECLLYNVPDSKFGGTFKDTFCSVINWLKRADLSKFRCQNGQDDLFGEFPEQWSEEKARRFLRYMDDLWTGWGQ

Em-CdnE = target: T3, Em-CdnE (Elizabethkingia meningoseptica, UniProt P0DSP2); experiment: X-ray crystal structure; format: binding
T3 sequence (P0DSP2 1-292): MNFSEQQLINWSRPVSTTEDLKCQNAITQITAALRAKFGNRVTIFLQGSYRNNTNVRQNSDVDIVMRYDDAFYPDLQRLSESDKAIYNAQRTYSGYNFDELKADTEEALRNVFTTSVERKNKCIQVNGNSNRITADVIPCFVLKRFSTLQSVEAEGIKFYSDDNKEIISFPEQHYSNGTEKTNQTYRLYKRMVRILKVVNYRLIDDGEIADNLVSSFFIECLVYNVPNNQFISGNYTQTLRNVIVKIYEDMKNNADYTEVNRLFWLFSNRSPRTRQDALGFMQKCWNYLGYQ

Sequence of Ec-CdnD02 (CD-NTase038) (P0DSP4 whole entry): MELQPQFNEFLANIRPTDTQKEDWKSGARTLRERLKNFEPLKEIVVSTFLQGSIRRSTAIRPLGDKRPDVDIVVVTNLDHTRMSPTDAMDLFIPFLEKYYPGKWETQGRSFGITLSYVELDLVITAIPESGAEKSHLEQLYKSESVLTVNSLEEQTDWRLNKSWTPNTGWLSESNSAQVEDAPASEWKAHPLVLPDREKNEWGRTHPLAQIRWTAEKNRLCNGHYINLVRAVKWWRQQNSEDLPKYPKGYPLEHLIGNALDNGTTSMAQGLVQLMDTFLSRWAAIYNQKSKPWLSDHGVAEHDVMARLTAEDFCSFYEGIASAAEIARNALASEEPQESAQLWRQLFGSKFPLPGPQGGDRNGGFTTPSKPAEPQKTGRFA

Nc1nc2c(ncn2[C@@H]2O[C@@H]3COP(=O)(O)O[C@H]4[C@@H](O)[C@H](n5cnc6c(N)ncnc65)O[C@@H]4COP(=O)(O)O[C@H]3[C@H]2O)c(=O)[nH]1 [3′3′ cGAMP]
native PAGE gel shift [1]: STING bound to all four cyclic dipurine molecules with high affinity

Nc1ncnc2c1ncn2[C@@H]1O[C@H](COP(=O)(O)OP(=O)(O)OP(=O)(O)O)[C@@H](O)[C@H]1O [ATP]
radiolabelled NTP, silica TLC (Ec-CdnD02 (CD-NTase038)): ATP and GTP were necessary and sufficient for product formation

Nc1ncnc2c1ncn2[C@@H]1O[C@H](COP(=O)(O)CP(=O)(O)OP(=O)(O)O)[C@@H](O)[C@H]1O [Apcpp]
X-ray crystal structure (Rm-CdnE): structure of Rm-CdnE in complex with nonhydrolyzable ATP and UTP | X-ray crystal structure (Em-CdnE; with GTP and Mg2+, nonhydrolyzable substrate analogue): Crystal structure of Em-CdnE in complex with GTP and nonhydrolyzable ATP

Nc1nc2c(ncn2[C@@H]2O[C@H](COP(=O)(O)OP(=O)(O)OP(=O)(O)O)[C@@H](O)[C@H]2O)c(=O)[nH]1 [GTP]
X-ray crystal structure (Em-CdnE; with Apcpp and Mg2+): Crystal structure of Em-CdnE in complex with GTP and nonhydrolyzable ATP

Nc1nc2c(ncn2[C@@H]2O[C@@H]3COP(=O)(O)O[C@H]4[C@@H](O)[C@H](n5cnc6c(=O)[nH]c(N)nc65)O[C@@H]4COP(=O)(O)O[C@H]3[C@H]2O)c(=O)[nH]1 [c-di-GMP]
native PAGE gel shift [1]: STING bound to all four cyclic dipurine molecules with high affinity
